Experimental data reported in US8076486B2, “Heteroaryl-substituted arylaminopyridine derivatives as MEK inhibitors” (Merck Serono S.A., priority 2006, dated 2011).
pIC50: −log10 of the molar value.

Tests used:
[1] = system: Murine colon C26 cells; experiment: Tumor Cell Proliferation Assay (ATP Lite), C26; assay type: cell-based; conditions: Mus musculus, 96 h, 4 days, ATPlite
Description: (§1) Assay 2: Tumor Cell Proliferation Assays (ATP Lite)
(§2) Murine colon C26 (1500 cells/well), human melanoma A375 (2000 cells/well), or human pancreatic MiaPaCa-2 cells (2000 cells/well) were plated in white, 96 well plates (Corning) in growth media (DMEM with 10% fetal bovine serum, 2 mM glutamine for C26 and MiaPaCa-2, and RPMI with 10% fetal bovine serum, 2 mM glutamine for A375) and cultured overnight at 37° C. in a humidified, 5% CO2 incubator. Inhibitors were serially diluted in 100% DMSO and subsequently added to the cells, in growth media, to reach a final concentration of 0.25% DMSO. The cells were incubated for 4 days in the presence of the test compounds and the proliferation was quantitated using the ATPlite cell proliferation kit (Packard).

[2] = system: human pancreatic MiaPaCa-2 cells; experiment: Tumor Cell Proliferation Assay (ATP Lite), MiaPaCa-2; assay type: cell-based; conditions: MIA PaCa-2, 96 h, 4 days, ATPlite, read-out: MiaPaCa2 cell proliferation IC50
Description: as §1, §2

[3] = system: human melanoma A375 cells; experiment: Tumor Cell Proliferation Assay (ATP Lite), A375; assay type: cell-based; conditions: A-375, 96 h, 4 days, ATPlite
Description: as §1, §2

[4] = molecular target: human MEK1 (Homo sapiens, UniProt Q02750, S218E/S222E); experiment: MEK-1 Enzyme Assay (LANCE-HTRF); assay type: biochemical; conditions: MEK-1 EE, ERK-2K52A substrate, 9 uM ATP, 1.5 hrs
Sequence of human MEK1 (Q02750 whole entry S218E/S222E): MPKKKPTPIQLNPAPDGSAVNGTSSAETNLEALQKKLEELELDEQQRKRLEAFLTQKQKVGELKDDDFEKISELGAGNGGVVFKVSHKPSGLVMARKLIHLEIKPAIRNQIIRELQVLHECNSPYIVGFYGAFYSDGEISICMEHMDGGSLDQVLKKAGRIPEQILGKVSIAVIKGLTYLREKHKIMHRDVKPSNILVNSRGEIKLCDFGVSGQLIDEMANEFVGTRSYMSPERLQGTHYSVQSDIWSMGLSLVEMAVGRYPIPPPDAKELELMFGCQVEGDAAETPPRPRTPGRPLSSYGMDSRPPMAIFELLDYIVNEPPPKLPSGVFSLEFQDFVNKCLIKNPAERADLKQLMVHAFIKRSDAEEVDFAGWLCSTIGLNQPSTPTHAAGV
Description: Assay 1: MEK-1 Enzyme Assay (LANCE-HTRF)
Inhibition of human MEK1 kinase activity was monitored with a homogenous, fluorescence-based assay. The assay uses time resolved fluorescence resonance energy transfer to probe for phosphorylation of ERK1 by MEK1. The detailed procedure is described in the following:
Constititutively active MEK-1 EE (150 ng/well) and ERK-2K52A (110 ng/well) were incubated in black, 384 well Optiplates (Perkin Elmer) for 1.5 hrs at room temperature, in the presence of increasing concentrations of inhibitors. The total reaction volume was 50 ul. The inhibitors were serial diluted in kinase buffer (9 uM ATP, 50 mM Tris-Hcl pH 8.0, 10 mM MgCl2, 1 mM DTT and 100 uM Na3VO4), to a final concentration of 1% DMSO. At the end of the incubation, the enzyme reaction was quenched by adding 50 ul of assay buffer containing 50 mM Tris-Hcl, 50 mM EDTA, 0.1% BSA and a mixture of 1.25 ug/mL europium labeled anti-phosphotyrosine mAb (Perkin Elmer) and 5 ug/mL of allophycocyanin labeled anti-GST antibody (CIS-US). Plates were agitated on a plate shaker for 30 minutes and the phosphorylation of the ERK-2K52A substrate was measured by homogeneous time resolved fluorescence (HTRF) at 340 nm excitation and […] emission filters on the VICTOR V fluorescence plate reader. Phosphorylation is expressed as a ratio of 665 nM signal×10,000/615 nM signal. To assess the inhibitory potential of the compounds, IC50-values were determined.

COc1ccc(Nc2cnccc2-c2nnc(N)o2)c(F)c1 [Example 25, [4-(5-Amino-[1,3,4]oxadiazol-2-yl)-pyridin-3-yl]-(2-fluoro-4-methoxy-phenyl)-amine]
pIC50 [1]: ≥ 5.52 | pIC50 [2]: ≥ 5.52 | pIC50 [3]: ≥ 5.52 | pIC50 [4]: ≥ 5.52

CCOC(=O)Nc1nnc(-c2ccncc2Nc2ccc(I)cc2F)o1 [Example 26, {5-[3-(2-Fluoro-4-iodo-phenylamino)-pyridin-4-yl]-[1,3,4]oxadiazol-2-yl}-carbamic acid ethyl ester]
pIC50 [1]: ≥ 5.52 | pIC50 [2]: ≥ 5.52 | pIC50 [3]: ≥ 5.52 | pIC50 [4]: ≥ 5.52

Nc1nnc(-c2cc[n+]([O-])cc2Nc2ccc(I)cc2F)o1 [Example 27, [4-(5-Amino-[1,3,4]oxadiazol-2-yl)-1-oxy-pyridin-3-yl]-(2-fluoro-4-iodo-phenyl)-amine]
pIC50 [1]: ≥ 5.52 | pIC50 [2]: ≥ 5.52 | pIC50 [3]: ≥ 5.52 | pIC50 [4]: ≥ 5.52

Cc1cc(I)ccc1Nc1cnccc1-c1nnc(N)o1 [Example 29, [4-(5-Amino-[1,3,4]oxadiazol-2-yl)-pyridin-3-yl]-(4-iodo-2-methyl-phenyl)-amine]
pIC50 [1]: ≥ 5.52 | pIC50 [2]: ≥ 5.52 | pIC50 [3]: ≥ 5.52 | pIC50 [4]: ≥ 5.52

CCOC(=O)c1nnc(-c2ccncc2Nc2ccc(I)cc2F)[nH]1 [Example 31, 5-[3-(2-Fluoro-4-iodo-phenylamino)-pyridin-4-yl]-4H-[1,2,4]triazole-3-carboxylic acid ethyl ester]
pIC50 [1]: 4.60 to 5.52 | pIC50 [2]: 4.60 to 5.52 | pIC50 [3]: ≥ 5.52 | pIC50 [4]: ≥ 5.52

OCc1nnc(-c2ccncc2Nc2ccc(I)cc2F)[nH]1 [Example 32, {5-[3-(2-Fluoro-4-iodo-phenylamino)-pyridin-4-yl]-4H-[1,2,4]triazol-3-yl}-methanol]
pIC50 [1]: ≥ 5.52 | pIC50 [2]: ≥ 5.52 | pIC50 [3]: ≥ 5.52 | pIC50 [4]: ≥ 5.52

Cc1cc(I)ccc1Nc1cnccc1-c1nnc(N)[nH]1 [Example 33, [4-(5-Amino-4H-[1,2,4]triazol-3-yl)-pyridin-3-yl]-(4-iodo-2-methyl-phenyl)-amine]
pIC50 [1]: ≥ 5.52 | pIC50 [2]: ≥ 5.52 | pIC50 [3]: ≥ 5.52 | pIC50 [4]: ≥ 5.52

Nc1nnc(-c2ccncc2Nc2ccc(Br)cc2F)o1 [Example 34, [4-(5-Amino-[1,3,4]oxadiazol-2-yl)-pyridin-3-yl]-(4-bromo-2-fluoro-phenyl)-amine]
pIC50 [1]: ≥ 5.52 | pIC50 [2]: ≥ 5.52 | pIC50 [3]: ≥ 5.52 | pIC50 [4]: ≥ 5.52

Nc1nnc(-c2ccncc2Nc2ccc(Br)cc2Cl)o1 [Example 35, [4-(5-Amino-[1,3,4]oxadiazol-2-yl)-pyridin-3-yl]-(4-bromo-2-chloro-phenyl)-amine]
pIC50 [1]: ≥ 5.52 | pIC50 [2]: ≥ 5.52 | pIC50 [3]: ≥ 5.52 | pIC50 [4]: ≥ 5.52

Fc1cc(I)ccc1Nc1cnccc1-c1ncno1 [Example 37, (2-Fluoro-4-iodo-phenyl)-(4-[1,2,4]oxadiazol-5-yl-pyridin-3-yl)-amine]
pIC50 [1]: ≥ 5.52 | pIC50 [2]: ≥ 5.52 | pIC50 [3]: ≥ 5.52 | pIC50 [4]: ≥ 5.52

OCc1noc(-c2ccncc2Nc2ccc(I)cc2F)n1 [Example 38, {5-[3-(2-Fluoro-4-iodo-phenylamino)-pyridin-4-yl]-[1,2,4]oxadiazol-3-yl}-methanol]
pIC50 [1]: ≥ 5.52 | pIC50 [2]: 4.60 to 5.52 | pIC50 [3]: ≥ 5.52 | pIC50 [4]: ≥ 5.52

CCOC(=O)c1nnc(-c2ccncc2Nc2ccc(I)cc2F)o1 [Example 39, 5-[3-(2-Fluoro-4-iodo-phenylamino)-pyridin-4-yl]-[1,3,4]oxadiazole-2-carboxylic acid ethyl ester]
pIC50 [1]: < 4.60 | pIC50 [2]: < 4.60 | pIC50 [3]: ≥ 5.52 | pIC50 [4]: ≥ 5.52

Fc1cc(I)ccc1Nc1cnccc1-c1nnco1 [Example 40, (2-Fluoro-4-iodo-phenyl)-(4-[1,3,4]oxadiazol-2-yl-pyridin-3-yl)-amine]
pIC50 [1]: ≥ 5.52 | pIC50 [2]: ≥ 5.52 | pIC50 [3]: ≥ 5.52 | pIC50 [4]: ≥ 5.52

Nc1nnc(-c2ccncc2Nc2ccc(I)cc2F)[nH]1 [Example 41, [4-(5-Amino-4H-[1,2,4]triazol-3-yl)-pyridin-3-yl]-(2-fluoro-4-iodo-phenyl)-amine]
pIC50 [1]: ≥ 5.52 | pIC50 [2]: ≥ 5.52 | pIC50 [3]: ≥ 5.52 | pIC50 [4]: ≥ 5.52

CN(C)c1nnc(-c2ccncc2Nc2ccc(I)cc2F)o1 [Example 42, [4-(5-Dimethylamino-[1,3,4]oxadiazol-2-yl)-pyridin-3-yl]-(2-fluoro-4-iodo-phenyl)-amine]
pIC50 [1]: ≥ 5.52 | pIC50 [2]: ≥ 5.52 | pIC50 [3]: ≥ 5.52 | pIC50 [4]: ≥ 5.52

COC(=O)CNc1nnc(-c2ccncc2Nc2ccc(I)cc2F)o1 [Example 43, {5-[3-(2-Fluoro-4-iodo-phenylamino)-pyridin-4-yl]-[1,3,4]oxadiazol-2-ylamino}-acetic acid methyl ester]
pIC50 [1]: ≥ 5.52 | pIC50 [2]: 4.60 to 5.52 | pIC50 [3]: ≥ 5.52 | pIC50 [4]: ≥ 5.52

OCCNc1nnc(-c2ccncc2Nc2ccc(I)cc2F)o1 [Example 44, 2-{5-[3-(2-Fluoro-4-iodo-phenylamino)-pyridin-4-yl]-[1,3,4]oxadiazol-2-ylamino}-ethanol]
pIC50 [1]: ≥ 5.52 | pIC50 [2]: ≥ 5.52 | pIC50 [3]: ≥ 5.52 | pIC50 [4]: ≥ 5.52

O=C(O)CNc1nnc(-c2ccncc2Nc2ccc(I)cc2F)o1 [Example 45, {5-[3-(2-Fluoro-4-iodo-phenylamino)-pyridin-4-yl]-[1,3,4]oxadiazol-2-ylamino}-acetic acid]
pIC50 [1]: 4.60 to 5.52 | pIC50 [2]: 4.60 to 5.52 | pIC50 [3]: ≥ 5.52 | pIC50 [4]: ≥ 5.52

NC(=O)CNc1nnc(-c2ccncc2Nc2ccc(I)cc2F)o1 [Example 46, 2-{5-[3-(2-Fluoro-4-iodo-phenylamino)-pyridin-4-yl]-[1,3,4]oxadiazol-2-ylamino}-acetamide]
pIC50 [1]: ≥ 5.52 | pIC50 [2]: ≥ 5.52 | pIC50 [3]: ≥ 5.52 | pIC50 [4]: ≥ 5.52

CN(C)C(=O)CNc1nnc(-c2ccncc2Nc2ccc(I)cc2F)o1 [Example 47, 2-{5-[3-(2-Fluoro-4-iodo-phenylamino)-pyridin-4-yl]-[1,3,4]oxadiazol-2-ylamino}-N,N-dimethyl-acetamide]
pIC50 [1]: ≥ 5.52 | pIC50 [2]: ≥ 5.52 | pIC50 [3]: ≥ 5.52 | pIC50 [4]: ≥ 5.52

Nc1nnc(-c2c(F)cncc2Nc2ccc(I)cc2F)o1 [Example 48, [4-(5-Amino-[1,3,4]oxadiazol-2-yl)-5-fluoro-pyridin-3-yl]-(2-fluoro-4-iodo-phenyl)-amine]
pIC50 [1]: ≥ 5.52 | pIC50 [2]: ≥ 5.52 | pIC50 [3]: ≥ 5.52 | pIC50 [4]: ≥ 5.52

Fc1cc(I)ccc1Nc1cnccc1-c1nnc(NCC2CCCO2)o1 (centres unmarked) [Example 49, (2-Fluoro-4-iodo-phenyl)-(4-{5-[(tetrahydro-furan-2-ylmethyl)-amino]-[1,3,4]oxadiazol-2-yl}-pyridin-3-yl)-amine]
pIC50 [1]: ≥ 5.52 | pIC50 [2]: ≥ 5.52 | pIC50 [3]: ≥ 5.52 | pIC50 [4]: ≥ 5.52

Fc1cc(I)ccc1Nc1cnccc1-c1nnc(NCC2CCCO2)s1 (centres unmarked) [Example 50, (2-Fluoro-4-iodo-phenyl)-(4-{5-[(tetrahydro-furan-2-ylmethyl)-amino]-[1,3,4]thiadiazol-2-yl}-pyridin-3-yl)-amine]
pIC50 [1]: ≥ 5.52 | pIC50 [2]: ≥ 5.52 | pIC50 [3]: ≥ 5.52 | pIC50 [4]: ≥ 5.52

CCOC(=O)C(C)Nc1nnc(-c2ccncc2Nc2ccc(I)cc2F)o1 (centres unmarked) [Example 52, 2-{5-[3-(2-Fluoro-4-iodo-phenylamino)-pyridin-4-yl]-[1,3,4]oxadiazol-2-ylamino}-propionic acid ethyl ester]
pIC50 [1]: ≥ 5.52 | pIC50 [2]: ≥ 5.52 | pIC50 [3]: ≥ 5.52 | pIC50 [4]: ≥ 5.52

CC(Nc1nnc(-c2ccncc2Nc2ccc(I)cc2F)o1)C(=O)O (centres unmarked) [Example 53, 2-{5-[3-(2-Fluoro-4-iodo-phenylamino)-pyridin-4-yl]-[1,3,4]oxadiazol-2-ylamino}-propionic acid]
pIC50 [1]: ≥ 5.52 | pIC50 [2]: 4.60 to 5.52 | pIC50 [3]: ≥ 5.52 | pIC50 [4]: ≥ 5.52

Nc1nnc(-c2ccncc2Nc2ccc(I)cc2F)s1 [Example 54, [4-(5-Amino-[1,3,4]thiadiazol-2-yl)-pyridin-3-yl]-(2-fluoro-4-iodo-phenyl)-amine]
pIC50 [1]: ≥ 5.52 | pIC50 [2]: ≥ 5.52 | pIC50 [3]: ≥ 5.52 | pIC50 [4]: ≥ 5.52
